{
  "source": "patent US9943536B2",
  "about": "“Reactivation of HIV-1 gene expression to treat persistent HIV infection” (UNIVERSITÉ LIBRE DE BRUXELLES, priority 2011, dated 2018)",
  "assay_type_in_all_cases": "cell-based",
  "key": {"[1]": {"tested_on": "HIV-1 in HLA DR− CD25− CD69− CD4+ T cells from HIV-1-infected cART-treated patients", "assay": "HIV-1 recovery in resting memory (HLA DR− CD25− CD69−) CD4+ T cells from cART-treated patients", "settings": "for concentration of viral RNA in culture supernatants: HLA DR− CD25− CD69− CD4+ T cells, six days after treatment", "experimental": "Further to Table 3: Cultures of patient cells were mock-treated or treated with indicated compounds. Six days after treatment, the concentration of viral RNA in culture supernatants was determined (in copies/ml; l means below the threshold and ‘/’ indicates an untested condition). Total HIV-1 DNA is expressed as HIV-1 DNA copies/10^6 cells or as log HIV-1 DNA copies/10^6 cells.\nFIG. 3. […] Cultures of resting memory CD4^+ T cells were mock-treated or treated as indicated. Six days after treatment, the concentration of viral RNA in culture supernatants was measured (in copies/ml). […] The reactivated patient cultures were classified in relevant categories where HIV-1 recovery after the combined treatment presented a higher viral production than after the individual treatment. […] The reactivated patient cultures were subdivided in two relevant categories: (b1) cultures in which HIV-1 recovery after the combined treatment was higher than after the individual treatments, (b2) and cultures in which a synergistic reactivation of viral RNA production was observed after the combined treatments.\n(§1) Table 4. […] Cultures of resting memory CD4^+ T cells were mock-treated or treated with BIX-01294. Six days after treatment, the concentration of viral RNA in culture supernatants was determined in copies/ml (l indicates below the threshold).\nas §1, with “FIG.” for “Table”, “BIX-01294 alone, with SAHA alone or with the combinationSAHA+BIX-01294.” for “BIX-01294.”, “(I” for “(l”\nCultures of 2.5×10^5 HLA DR^− CD 25 CD69^− CD4^+ T cells were mock-treated or treated with BIX-01294. Six days after treatment, the concentration of viral RNA in culture supernatants was determined (Table 4)."}, "[2]": {"tested_on": "HIV-1 in HLA DR− CD4+ T cells from HIV-1-infected cART-treated patients", "assay": "HIV-1 recovery in limiting-dilution cultures of HLA DR− CD4+ T cells from cART-treated patients", "settings": "for concentration of viral RNA in culture supernatants: limiting dilution, one line per patient", "experimental": "(§2) (a) Cultures of CD8^+-depleted PBMCs were mock-treated or treated with chaetocin (90 nmol/l). Six days after treatment, the concentration of viral RNA in culture supernatants was determined. Total HIV-1 DNA is expressed as HIV-1 DNA copies/10^6 cells or as log HIV-1 DNA copies/10^6 cells (‘/’ indicates not-tested condition). (b) Limiting-dilution cultures of HLA DR^− CD4^+ T cells were mock-treated or treated with chaetocin (45 or 90 nmol/l). The concentration of viral RNA in culture supernatants was determined. The last positive dilution culture indicates the presence of at least one cell carrying replication-competent and chaetocin-responsive virus.\n(§3) Cultures comprising 6.10^6 CD8^+-depleted PBMCs were mock-treated or treated with chaetocin. Six days after treatment, the concentration of viral RNA in culture supernatants was determined by the Amplicor method (Roche Diagnostics). The results are depicted in Table 1 and 2A. The percentage of reactivation was calculated on all patients reactivated. Nine out of the eighteen tested PBMC cultures reactivated HIV-1 expression in response to chaetocin treatment, while none of them did when mock-treated. Subsequently, limiting-dilution cultures of HLA DR^− CD4^+ T cells were performed and these cultures were mock-treated or treated with chaetocin. The last positive dilution culture indicates the presence of at least one cell carrying replication-competent HIV-1 virus. The concentration of viral RNA in culture supernatants was determined by the Amplicor method (Roche Diagnostics). Values are expressed in HIV-1 RNA copies/ml."}, "[3]": {"tested_on": "HIV-1 in CD8+-depleted PBMCs from HIV-1-infected cART-treated patients", "assay": "HIV-1 recovery in ex-vivo cultures of CD8+-depleted PBMCs from cART-treated patients", "settings": "for concentration of viral RNA in culture supernatants: six days after treatment", "experimental": "Table 1. […] Cultures of CD8^+-depleted PBMCs were mock-treated or treated with chaetocin (30, 60 or 90 nmol/l) or with the positive control. Six days after treatment, the concentration of viral RNA in culture supernatants was determined (in copies/ml; ‘l’ indicates below the threshold).\nas §2, §3"}, "[4]": {"settings": "one line per patient culture H19-H34 (Table 3), l = below the threshold"}},
  "note": "“And” between values parts separate entries of the source, which are not always exact repeats. Identical values can stand only once.",
  "data": [
    {"compound": "O=C(CCCCCCC(=O)Nc1ccccc1)NO", "note": "[SAHA, suberoylanilide hydroxamic acid]", "values": [
      {"measurement": "concentration of viral RNA in culture supernatants", "setting": "[1]; [4]", "value": "624 copies/ml and 520 copies/ml and 252 copies/ml and 2248 copies/ml and 908 copies/ml and 952 copies/ml and 336 copies/ml and 540 copies/ml and 1480 copies/ml and 420 copies/ml and 416 copies/ml and 412 copies/ml"}
    ]},
    {"compound": "CN1C(=O)[C@@]23C[C@]4([C@]56C[C@@]78SS[C@@](CO)(C(=O)N7[C@H]5Nc5ccccc56)N(C)C8=O)c5ccccc5N[C@@H]4N2C(=O)[C@]1(CO)SS3", "note": "[chaetocin]", "values": [
      {"measurement": "concentration of viral RNA in culture supernatants", "setting": "[2]; chaetocin 45 nM, 1.5 × 10^6 cells", "value": "288 copies/ml and 831 copies/ml"},
      {"measurement": "concentration of viral RNA in culture supernatants", "setting": "[2]; chaetocin 45 nM, 5 × 10^5 cells", "value": "179 copies/ml and 245 copies/ml and 89 copies/ml and 97 copies/ml and 769 copies/ml"},
      {"measurement": "concentration of viral RNA in culture supernatants", "setting": "[2]; chaetocin 45 nM, 10^5 cells", "value": "83 copies/ml and 238 copies/ml"},
      {"measurement": "concentration of viral RNA in culture supernatants", "setting": "[2]; chaetocin 45 nM, 10^6 cells", "value": "284 copies/ml and 94 copies/ml and 292 copies/ml and 702 copies/ml"},
      {"measurement": "concentration of viral RNA in culture supernatants", "setting": "[2]; chaetocin 90 nM, 1.5 × 10^6 cells", "value": "377 copies/ml and 1050 copies/ml"},
      {"measurement": "concentration of viral RNA in culture supernatants", "setting": "[2]; chaetocin 90 nM, 5 × 10^4 cells", "value": 76, "unit": "copies/ml"},
      {"measurement": "concentration of viral RNA in culture supernatants", "setting": "[2]; chaetocin 90 nM, 5 × 10^5 cells", "value": "147 copies/ml and 118 copies/ml and 68 copies/ml and 52 copies/ml and 1043 copies/ml"},
      {"measurement": "concentration of viral RNA in culture supernatants", "setting": "[2]; chaetocin 90 nM, 10^5 cells", "value": "51 copies/ml and 50 copies/ml and 47 copies/ml and 359 copies/ml"},
      {"measurement": "concentration of viral RNA in culture supernatants", "setting": "[2]; chaetocin 90 nM, 10^6 cells", "value": "178 copies/ml and 131 copies/ml and 791 copies/ml"},
      {"measurement": "HIV-1 recovery, share of resting CD4+ T-cell cultures", "setting": "[2]; cultures from HIV-1+ cART-treated patients (Table 2b)", "value": 86, "unit": "%"},
      {"measurement": "% of reactivation", "setting": "[3]; 18 patients H1-H18, chaetocin 90 nmol/l or positive control", "value": 50, "unit": "%"},
      {"measurement": "concentration of viral RNA in culture supernatants", "setting": "[3]; CD8+-depleted PBMCs, one line per patient culture H1-H18 (Table 3), l = below the threshold", "value": "1825 copies/ml and 354 copies/ml and 2057 copies/ml and 2371 copies/ml and 1566 copies/ml and 797 copies/ml and 477 copies/ml and 2388 copies/ml and 467 copies/ml"},
      {"measurement": "Reactivated patients", "setting": "[3]; chaetocin 30 nM, of 6 patients H1-H6", "value": 1},
      {"measurement": "concentration of viral RNA in culture supernatants", "setting": "[3]; chaetocin 30 nM, one line per patient culture, I = below the threshold", "value": 1139, "unit": "copies/ml"},
      {"measurement": "Reactivated patients", "setting": "[3]; chaetocin 60 nM, of 6 patients H1-H6", "value": 3},
      {"measurement": "concentration of viral RNA in culture supernatants", "setting": "[3]; chaetocin 60 nM, one line per patient culture, I = below the threshold", "value": "222 copies/ml and 452 copies/ml and 1924 copies/ml"},
      {"measurement": "Reactivated patients", "setting": "[3]; chaetocin 90 nM, of 6 patients H1-H6", "value": 4},
      {"measurement": "concentration of viral RNA in culture supernatants", "setting": "[3]; chaetocin 90 nM, one line per patient culture, I = below the threshold", "value": "2371 copies/ml and 1825 copies/ml and 354 copies/ml and 2057 copies/ml"},
      {"measurement": "concentration of viral RNA in culture supernatants", "setting": "[3]; chaetocin 90 nmol/l, one line per patient culture H1-H18, I = below the threshold", "value": "2371 copies/ml and 1566 copies/ml and 797 copies/ml and 477 copies/ml and 2388 copies/ml and 467 copies/ml and 1825 copies/ml and 354 copies/ml and 2057 copies/ml"},
      {"measurement": "HIV-1 recovery, share of CD8+-depleted PBMCs cultures", "setting": "[3]; cultures from HIV-1+ cART-treated patients (Table 2a)", "value": 50, "unit": "%"},
      {"measurement": "Reactivated patients", "setting": "[3]; of 18 patients H1-H18, chaetocin 90 nmol/l or positive control", "value": 9},
      {"measurement": "concentration of viral RNA in culture supernatants", "setting": "[1]; [4]", "value": "832 copies/ml and 180 copies/ml and 2780 copies/ml and 1244 copies/ml and 1616 copies/ml and 2000 copies/ml and 680 copies/ml and 4944 copies/ml and 300 copies/ml and 328 copies/ml and 2456 copies/ml and 1000 copies/ml"}
    ]},
    {"compound": "COc1cc2nc(N3CCCN(C)CC3)nc(NC3CCN(Cc4ccccc4)CC3)c2cc1OC", "note": "[BIX-01294]", "values": [
      {"measurement": "% of reactivation", "setting": "[1]; 10 patients (Table 4)", "value": 80, "unit": "%"},
      {"measurement": "concentration of viral RNA in culture supernatants", "setting": "[1]; one line per patient culture (Table 4), I = below the threshold", "value": "412 copies/ml and 1 780 copies/ml and 1 360 copies/ml and 665 copies/ml and 1624 copies/ml and 1385 copies/ml and 250 copies/ml and 4292 copies/ml"},
      {"measurement": "concentration of viral RNA in culture supernatants", "setting": "[1]; [4]", "value": "665 copies/ml and 1624 copies/ml and 1385 copies/ml and 250 copies/ml and 4292 copies/ml and 412 copies/ml and 1780 copies/ml and 1360 copies/ml"},
      {"measurement": "reactivated HIV-1 expression, share of resting CD4+ T-cell cultures", "setting": "[1]; cultures from HIV-1+ cART-treated patients (Table 4)", "value": 80, "unit": "%"},
      {"measurement": "Reactivated patients", "setting": "[1]; of 10 patients (Table 4)", "value": 8}
    ]},
    {"compound": "CC(=O)O[C@@]12C[C@@H](C)[C@@]3(O)[C@@H](C=C(CO)C[C@]4(O)C(=O)C(C)=C[C@@H]34)[C@@H]1C2(C)C", "note": "[prostratin, 12-deoxyphorbol 13-acetate]", "values": [
      {"measurement": "concentration of viral RNA in culture supernatants", "setting": "[1]; [4]", "value": "612 copies/ml and 1380 copies/ml and 1064 copies/ml and 2508 copies/ml and 2540 copies/ml and 3532 copies/ml and 704 copies/ml and 420 copies/ml"}
    ]}
  ]
}
